The values that follow come from patent publication US7820197B2, “Percutaneous preparations” (Astellas Pharma Inc., priority 2002, dated 2010).

For series [1], the system named is dihydrotachysterol-induced calcification (calciphylaxis). Conditions: cited from earlier work.
The conditions of series [2]: as compared to control; cited from earlier work.
The nature of series [3]: Percutaneous absorption test of 14C-incadronate aqueous solution. In kind it is in vivo, rat. Conditions: in 24 hours after the administration. From the text:
The rat abdominal hair was shaved and a round cell (made of acryl, 20 mm in diameter) was fixed on the skin with a medical adhesive. […] During the test, the rat was fixed dorsally under urethane anesthesia. Bone tissue specimens were burnt in a tissue combustion equipment and the radioactivity was counted by a scintillation counter.

Series [4] is described as follows: Solubility properties. In kind it is physicochemical.

Like-named read-outs stand apart in the source and are kept apart here.

As to `CC(O)(P(=O)(O)O)P(=O)(O)O` [etidronate], the skin calcium level in series [1] (composition of etidronate and penetrating carrier containing decyl methyl sulfoxide) is given as 2.026%; in series [1] (etidronate alone dissolved in the penetrating carrier vehicle), 0.067%. Moreover, the “enhancement of penetration effect by decyl methyl sulfoxide” value in series [2] is given as “about 6 fold”.
On to `O=P([O-])(O)C(NC1CCCCCC1)P(=O)([O-])O.[Na+].[Na+]` [incadronate, disodium incadronate], for which, in series [3], the “concentration in the bone tissues” value was “very high concentration in the bone tissues”.
With `O=P(O)(O)C(O)(Cc1cnc2ccccn12)P(=O)(O)O` [minodronic acid, 1-hydroxy-2-(imidazo[1,2-a]pyridin-3-yl)ethylidenebisphosphonic acid], in series [4] (alkaline solvent), the “solubility in an alkaline solvent” value is “soluble in an alkaline solvent”. In series [4] (organic solvent), the “solubility in an organic solvent” value is “insoluble even in an organic solvent”. Besides, the solubility in water result in series [4] (water) was “practically insoluble in water”.
